Data published in BindingDB's records for doi:10.1021/jm0497242 (Leadscope, 2004).

Target: T1, Tyrosine-protein phosphatase non-receptor type 1 (Homo sapiens, UniProt P18031)
T1 sequence (P18031 whole entry): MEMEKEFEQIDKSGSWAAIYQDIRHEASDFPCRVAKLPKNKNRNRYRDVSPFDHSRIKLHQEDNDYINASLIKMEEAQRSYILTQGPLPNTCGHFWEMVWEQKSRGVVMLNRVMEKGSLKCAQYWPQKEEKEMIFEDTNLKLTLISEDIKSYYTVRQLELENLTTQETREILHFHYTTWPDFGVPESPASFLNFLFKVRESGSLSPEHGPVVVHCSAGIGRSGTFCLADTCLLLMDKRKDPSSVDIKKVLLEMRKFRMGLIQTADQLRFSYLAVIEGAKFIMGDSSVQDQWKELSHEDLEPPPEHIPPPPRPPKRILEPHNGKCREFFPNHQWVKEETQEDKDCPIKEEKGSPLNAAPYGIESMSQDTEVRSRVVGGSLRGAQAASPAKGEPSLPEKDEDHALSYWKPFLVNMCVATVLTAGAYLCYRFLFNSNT
Test: Concentration required for 50% inhibition of tyrosine phosphatase 1B

## O=C(O)CNc1cc(-c2ccc(-c3c(Cc4ccccc4)oc4ccccc34)cc2)ccc1OCCc1ccccc1 [[4'-(2-Benzyl-benzofuran-3-yl)-4-phenethyloxy-biphenyl-3-ylamino]-acetic acid]
  IC50: 0.0831 µM

## O=C(O)[C@@H](Cc1ccccc1)Oc1ccc(-c2ccc(-c3c(Cc4ccccc4)sc4ccccc34)cc2)cc1Br
  IC50: 0.0588 µM

## O=C(O)c1cc(S(=O)(=O)Oc2ccc(-c3ccc(-c4c(Cc5ccccc5)oc5ccccc45)cc3)cc2)ccc1O [5-[4''-(2-Benzyl-benzofuran-3-yl)-biphenyl-4-yloxysulfonyl]-2-hydroxy-benzoic acid]
  IC50: 0.0275 µM
